According to patent US7709460B2, “Method for treating or preventing a functional vitamin B12 deficiency in an individual and medical compositions for use in said method” (Cobalz Limited, priority 2001, dated 2010):

How the values were obtained:
[1] = system: cob(III)alamin reductase (CR); settings: literature study (reference 15); cited from earlier work
[2] = system: patients with a functional Vitamin B12 deficiency and suffering from a neuropsychiatric abnormality; assay: clinical observation of symptoms and behaviour in case reports (Example 2); format: in vivo, human
Source text: (§1) The effect of generating a cobalt-sulphur bond by the co-administration of hydroxocobalamin and a glutathione precursor (N-acetyl cysteine or α-lipoic acid) on the symptoms of seven patients suffering from neuropsychiatric abnormalities was investigated.

[3] = system: patients with a functional Vitamin B12 deficiency and suffering from a neuropsychiatric abnormality; assay: Mini-Mental State Examination (MMSE) in treated patients; format: in vivo, human
Experimental: (§2) Cognitive scores (Mini Metal State Examination (MMSE) and the cognitive component of the Alzheimer Disease Assessment Scale (ADAS-Cog)) were recorded for cases and controls (16, 17).
as §1

[4] = system: patients with a functional Vitamin B12 deficiency and suffering from a neuropsychiatric abnormality; assay: cognitive component of the Alzheimer Disease Assessment Scale (ADAS-Cog) in treated patients; format: in vivo, human
Experimental: as §2, §1

[5] = serum homocysteine level under treatment; format: in vivo, human; settings: Patient 4; monthly hydroxocobalamin plus oral folate, 1999; 23.7 μmol/l before treatment
[6] = side effects reported by patients; format: in vivo, human
[7] = Patient 4, monthly hydroxocobalamin plus oral folate, 1999
[8] = Patient 1, N-acetyl cysteine 600 mg daily added to monthly hydroxocobalamin, two weeks
[9] = Patient 4, N-acetylcysteine 600 mg daily added to B-vitamin supplementation
[10] = Patient 7, 600 mg NAC daily added to hydroxocobalamin and folate, one month

## C/C1=C2/[N-][C@H]([C@H](CC(N)=O)[C@@]2(C)CCC(=O)NC[C@@H](C)OP(=O)([O-])O[C@H]2[C@@H](O)[C@@H](n3cnc4cc(C)c(C)cc43)O[C@@H]2CO)[C@]2(C)N=C(/C(C)=C3N=C(/C=C4N=C1[C@@H](CCC(N)=O)C\4(C)C)[C@@H](CCC(N)=O)[C@]\3(C)CC(N)=O)[C@@H](CCC(N)=O)[C@]2(C)CC(N)=O.[CH2-][C@H]1O[C@@H](n2cnc3c(N)ncnc32)[C@H](O)[C@@H]1O.[Co] [Ado-Cbl, adenosyl cobalamin]
[1]
  use as substrate / reductase activity: Little or no reductase activity

## vitamin B12
[2]; Patient 6, presumed multiple sclerosis, regular injections of vitamin B12
  clinical response: very apparent improvement in their symptoms

## Nc1nc2ncc(CNc3ccc(C(=O)N[C@@H](CCC(=O)O)C(=O)O)cc3)nc2c(=O)[nH]1 [folic acid]
[2]; Patient 2, age-associated memory impairment, folic acid supplements for some months
  clinical response: no significant change in their symptoms

## C/C1=C2/[N-][C@H]([C@H](CC(N)=O)[C@@]2(C)CCC(=O)NC[C@@H](C)OP(=O)([O-])O[C@H]2[C@@H](O)[C@@H](n3cnc4cc(C)c(C)cc43)O[C@@H]2CO)[C@]2(C)N=C(/C(C)=C3N=C(/C=C4N=C1[C@@H](CCC(N)=O)C\4(C)C)[C@@H](CCC(N)=O)[C@]\3(C)CC(N)=O)[C@@H](CCC(N)=O)[C@]2(C)CC(N)=O.[Co+3].[OH-] [hydroxocobalamin]
[3]; Patient 1, regular monthly hydroxocobalamin injections alone, February 2001, before N-acetyl cysteine
  MMSE score: 18/30
[3]; Patient 2, monthly hydroxocobalamin, after 6 months
  MMSE score: 21/30
[3]; Patient 3, on monthly hydroxocobalamin, cognitive review in 1997
  MMSE score: 13/30
[3]; [7]
  MMSE score: 5/30
[4]; Patient 1, regular monthly hydroxocobalamin alone, February 2001
  ADAS-Cog score: 28/70
[4]; [7]
  ADAS-Cog score: 70
[4]; Patient 7, weekly hydroxocobalamin with oral folate, before NAC
  ADAS-Cog score: 68
[2]; Patient 1, monthly injections of hydroxocobalamin, from 1994
  clinical response: neuropsychiatric symptoms were initially much improved
[2]; Patient 2, monthly injections of hydroxocobalamin
  clinical response (husband's report): no significant change in their condition
[2]; Patient 3, probable Alzheimer-type dementia, monthly hydroxocobalamin, ensuing 2 years
  clinical response: their mental condition continued to deteriorate
[2]; Patient 4, probable Alzheimer-type dementia, monthly hydroxocobalamin plus folic acid 5 mg daily
  clinical response: their cognitive function continued to slowly deteriorate
[2]; Patient 7, vascular dementia, weekly hydroxocobalamin injections with oral folate supplement
  cognitive function: no significant improvement in their cognitive function
[5]
  serum homocysteine level: 5.7 µmol/L

## O=C(O)CCCCC1CCSS1 (stereo not drawn) [α-lipoic acid]
[2]; Patient 4, changed from N-acetylcysteine to α-lipoic acid 50 mg twice daily, with B vitamins
  clinical response: clinical improvement was maintained one year later

## cyanocobalamin [CN-Cbl]
[1]
  use as substrate / reductase activity: Little or no reductase activity

## C/C1=C2/[N-][C@H]([C@H](CC(N)=O)[C@@]2(C)CCC(=O)NC[C@H](C)OP(=O)([O-])O[C@H]2[C@@H](O)[C@@H](n3cnc4cc(C)c(C)cc43)O[C@@H]2CO)[C@]2(C)N=C(/C(C)=C3N=C(/C=C4N=C1[C@@H](CCC(N)=O)C\4(C)C)[C@@H](CCC(N)=O)[C@]\3(C)CC(N)=O)[C@@H](CCC(N)=O)[C@]2(C)CC(N)=O.[CH3-].[Co+3] [methylcobalamin]
[2]; Patient 5, Chronic Fatigue Syndrome, subcutaneous methylcobalamin twice weekly
  clinical response: clear improvement after only their third injection
[2]; Patient 5, methylcobalamin injections withdrawn in 1994
  clinical condition on withdrawal of injections: marked deterioration in relation to the withdrawal of these injections
[1]
  use as substrate / reductase activity: Little or no reductase activity

## CC(=O)N[C@@H](CS)C(=O)O [N-acetyl cysteine]
[3]; [8]
  MMSE score: 21/30
[3]; Patient 2, oral N-acetylcysteine 600 mg added to hydroxocobalamin, one month
  MMSE score: 25/30
[3]; [9]
  cognitive score: no improvement in their cognitive score
[4]; Patient 1, N-acetyl cysteine 600 mg daily added to hydroxocobalamin, two weeks vs before
  improvement on the ADAS-Cog score: eight
[4]; [8]
  ADAS-Cog score: 20/70
[4]; Patient 1, N-acetyl cysteine added to hydroxocobalamin, four-week assessment
  further change on the ADAS-Cog score: gained an additional point
[4]; [10]
  points gained on ADAS-Cog score: 6 points
[2]; Patient 1, N-acetyl cysteine 600 mg daily added to hydroxocobalamin, two weeks
  clinical response (husband's report): some noticeable improvement in their memory
[2]; Patient 3, severe dementia, oral N-acetyl cysteine 600 mg daily added to hydroxocobalamin
  clinical response (family and nursing staff): significant improvement in their condition
[2]; [9]
  clinical response (behaviour): their behaviour was considerably improved
[2]; Patient 5, N-Acetylcysteine 400 mg daily, after three months, three times weekly before
  frequency of vitamin B12 injections needed: once weekly
[2]; Patient 5, oral N-Acetylcysteine 400 mg daily added to vitamin B12 regime, after a month
  clinical response: more lively and with less headaches
[2]; Patient 6, NAC 100 mg daily added to 1 mg oral cobalamin and 5 mg folic acid daily, 4 months
  clinical response: definitely improved
[2]; [10]
  clinical response (staff comment): less agitated, and more contented
[6]; Patient 5, oral N-Acetylcysteine 400 mg daily
  side effects: some gastroenteric side effects
[6]; Patient 6, NAC, limited them to 100 mg daily
  side effects: gastro intestinal side effects
